Experiment: Singlet oxygen quenching activity of carotenoids by the ESR method
Type: physicochemical
Settings: for singlet oxygen quenching activity compared with astaxanthin: ESR method, Table 3 and FIG. 1; for ESR signal intensity / ESR signal intensity Mean: carotenoid 2.5 mM, lower intensity = more effective quenching; for ESR signal intensity: hematoporphyrin + UVA, TMPD spin trap; for ESR signal intensity Mean: mean of three independent experiments, control 3.20
Excerpt: Crosslinking of dermal collagen by singlet oxygen is one reason for wrinkle formation caused by photoaging (Non-Patent Document 1). If the external skin preparation according to the present invention can quench singlet oxygen, specifically, changes in collagen as observed on the photoaged skin can be inhibited, and anti-aging effects can be exerted. Accordingly, pharmacological evaluation of the external skin preparation according to the present invention in respect of improvement and prevention of wrinkle formation can be performed using the singlet oxygen quenching capacity as the indicator. For example, pharmacological evaluation of the external skin preparation according to the present invention can be performed by determining whether or not the external skin preparation according to the present invention has sufficient singlet oxygen quenching capacity by the electron spin resonance (ESR) method that is employed for evaluation of the singlet oxygen quenching activity.
Evaluation was carried out by the ESR method using an ESR apparatus (JEOLJES-FR30, JEOL Ltd.). The method of evaluation is described below.
50 μl of 250 mM spin trap agent, 50 μl of an aqueous solution of 2,2,6,6-tetramethyl-4-piperidione (TMPD), and 50 μl of an acetone solution of 10 mM carotenoid were added to 50 μl of 100 mM phosphate buffer (pH 7.4), these components were thoroughly mixed, 50 μl of an aqueous solution of 0.25 mM hematoporphyrin was added thereto as a singlet oxygen generator, and the resultant was irradiated with ultraviolet A (UVA) to generate singlet oxygen.
Subsequently, ESR signals based on stable nitroxyl radicals (4-oxo-TEMPO) generated upon the reaction between singlet oxygen and TMPD in the reaction solution were measured.
No antioxidant was applied to a control group. The results are the mean and the standard deviations of three independent experiments.

[1] = first of three independent experiments
[2] = second value column of three independent experiments
[3] = third value column of three independent experiments

Row | SMILES | singlet oxygen quenching activity compared with astaxanthin | ESR signal intensity [1] | ESR signal intensity [2] | ESR signal intensity [3] | ESR signal intensity Mean
1 | CC1=C(/C=C/C(C)=C/C=C/C(C)=C/C=C/C=C(C)/C=C/C=C(C)/C=C/C2=C(C)C(=O)[C@@H](O)CC2(C)C)C(C)(C)C[C@H](O)C1 [Adonixanthin, adonixanthin] | significantly higher than that of astaxanthin | 0.74 | 0.97 | 0.72 | 0.81
2 | CC1=C(/C=C/C(C)=C/C=C/C(C)=C/C=C/C=C(C)/C=C/C=C(C)/C=C/C2=C(C)C(=O)[C@@H](O)CC2(C)C)C(C)(C)C[C@H](O)C1=O [Astaxanthin, astaxanthin, reference compound] | – | 2.00 | 2.33 | 2.72 | 2.35
3 | CC1=C(/C=C/C(C)=C/C=C/C(C)=C/C=C/C=C(C)/C=C/C=C(C)/C=C/C2=C(C)C(=O)[C@@H](O)CC2(C)C)C(C)(C)CCC1=O [Adonirubin, adonirubin] | significantly higher than that of astaxanthin | 0.79 | 1.13 | 1.11 | 1.01
